Measured values: paper PMC4338040, “Design of a Multicomponent Peptide-Woven Nanocomplex for Delivery of siRNA” (PLoS ONE, 2015)

Columns and labels:
siRNA [1] = test: SPR analysis of peptide binding to immobilized siRNA; conditions: peptide with sHGP-9r (19:1 molar ratios), 10, 5, 2.5 and 1.25 μM, biotinylated siRNA on streptavidin chip, 25°C
Method: The dynamics of PwSN formation were studied by SPR analysis (SR7500 DC, Reichert Inc, Depew, NY). 5′-Biotinylated siRNAs were diluted to 1 μM in HBS buffer (10 mM HEPES, pH 7.4, 150 mM NaCl, 3.4 mM EDTA, 0.005% Tween20), heated at 85°C for 10 min, cooled to room temperature, diluted to 20 fmol/μl in running buffer (10 mM HEPES, pH 7.4, 150 mM NaCl, 62.5 μg/ml bovine serum albumin, 125 μg/ml tRNA, 1 mM dithiothreitol, 0.05% Tween20), and injected at 10 μl/min. 50–100 response units of siRNA were coated per flow channel on streptavidin-coated sensor chip (NeutrAvidin Surface chip; Reichert Analytical Instrument, Depew, NY). 2-min injections of four different peptide concentrations (10, 5, 2.5, and 1.25 μ M) were injected over the sensor chip surface at 25°C with a flow rate of 25 μl/min. The surface was regenerated by removing bound peptides with a 180-s 2 M NaCl injection and 20-s 0.1% SDS followed by a binding buffer injection to rinse the needle. Sensorgrams were fit to kinetic titration model using Clamp program. To monitor dissociation between peptide and siRNA upon heparan sulfate competition, The 2.5 μM of peptides were injected to reach saturated binding and different concentrations of heparan sulfate were injected.

siRNA [2] = test: Gel retardation assay of siRNA encapsulation; assay type: physicochemical; conditions: 2% agarose, 100 pmol siRNA mixed with peptide 30 min at room temperature, ratios 1:5 to 1:50
Method: Peptide-woven siRNA nanocomplexes (PwSN) were prepared by mixing siRNA in diethylpyrocarbonate (DEPC)-treated water (100 pmoles) with peptide carrier with a molar ratio of 1:5 to 1:50 (siRNA: peptide) for 30 min at room temperature. The samples were subjected on 2% agarose gels electrophoresis to examine siRNA encapsulation. To test the stability of the siRNA nanocomplex against RNase A, the nanocomplex containing 100 pmol of siRNA mixed with 20-fold molar excess of peptides, then was incubated in the presence or absence of RNase A (0.2 μg) for up to 6 h at 37°C. After incubation, the RNase A activity was inhibited by addition of 2% sodium dodecyl sulfate (SDS) and subjected to agarose gel electrophoresis.

Row | binding affinity for siRNA (in words) (siRNA [1]) | siRNA:peptide molar ratios at which siRNA is encapsulated (siRNA [2]) | Substance
1 | moderate affinity |  | CRKRLDRNCggRRRRARRRR [I4R-9r(A1), I4R-9r variant with one arginine of 9r replaced by alanine]
2 | lowest affinity |  | CRKRLDRNCggRARRARRAR [I4R-9r(A3), I4R-9r variant with three alanine substitutions]
3 | lowest affinity |  | CRKRLDRNCggRRARRRARR [I4R-9r(A2), I4R-9r variant with two alanine substitutions]
4 | moderate affinity |  | CRKRLDRNCggRRARRRRRR [I4R-9r(A1*), I4R-9r variant with one arginine of 9r replaced by alanine, other position]
5 | strongest binding affinity | between 1:20 and 1:50 | CRKRLDRNC-GG-RRRRRRRRR [I4R-9r, interleukin-4 receptor-targeting peptide (I4R) connected by GG to nine D-arginine peptide]
